Reference: ChEMBL document CHEMBL1137918, “Synthesis and antiproliferative activity of 2-aryl-4-oxo-thiazolidin-3-yl-amides for prostate cancer” (Bioorg Med Chem Lett, 2004)

Legend:
Type in all cases: functional, cell-based
[1] = test system: DU-145; assay: Antiproliferative activity was evaluated against human prostate DU-145 cancer cell lines using the sulforhodamine B ([…]) assay
[2] = test system: PC-3; assay: Antiproliferative activity was evaluated against human prostate PC-3 cancer cell lines using the sulforhodamine B ([…]) assay
[3] = Antiproliferative activity was evaluated against human prostate PPC-1 cancer cell lines using the sulforhodamine B ([…]) assay
[4] = test system: LNCaP; assay: Antiproliferative activity was evaluated against human prostate LNCaP cancer cell lines using the sulforhodamine B ([…]) assay
[5] = Antiproliferative activity was evaluated against human prostate TSU cancer cell lines using the sulforhodamine B ([…]) assay

IC50 [1] [µM]	IC50 [2] [µM]	IC50 [4] [µM]	SMILES	IC50 [3] [µM]	IC50 [5] [µM]
15.8	> 20	> 20	CCCCCCCCCCCCCCCCCCNCCN1CCSC1c1ccccc1 (centres undefined)	12	6.1
–	> 100	> 100	COc1ccc(CCNC(=O)CN2C(=O)CSC2c2ccccc2)cc1OC (centres undefined)	> 100	> 100
